Ends that are not written are not given here.
What was measured:
Assay type in all cases: binding
NHERF3_1 PDZ = NHERF3_1 PDZ (Homo sapiens, UniProt Q5T2W1); test: Holdup assay; settings: composite holdup affinity; 0.00=below quantification threshold; read-out: COMP pKd (converted)
SNX27 PDZ = SNX27 PDZ (Homo sapiens, UniProt Q96L92); test: Holdup assay; settings: composite holdup affinity; 0.00=below quantification threshold; read-out: COMP pKd (converted)
MAGI1_2 PDZ = MAGI1_2 PDZ (Homo sapiens, UniProt Q96QZ7); test: biochemical; settings: composite holdup affinity; 0.00=below quantification threshold; read-out: COMP pKd (converted)
SYNJ2BP PDZ = molecular target: T1, SYNJ2BP PDZ (Homo sapiens, UniProt P57105); test: Holdup assay; settings: composite holdup affinity; 0.00=below quantification threshold; read-out: COMP pKd (converted)
T1 sequence (P57105 13-100 limits assumed): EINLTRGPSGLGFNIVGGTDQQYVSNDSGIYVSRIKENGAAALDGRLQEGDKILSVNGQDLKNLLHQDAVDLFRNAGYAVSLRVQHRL

DLG3_2 PDZ = DLG3_2 PDZ (Homo sapiens, UniProt Q92796); test: Holdup assay; settings: composite holdup affinity; 0.00=below quantification threshold; read-out: COMP pKd (converted)
DLG4_2 PDZ = DLG4_2 PDZ (Homo sapiens, UniProt P78352); test: Holdup assay; settings: composite holdup affinity; 0.00=below quantification threshold; read-out: COMP pKd (converted)
DLG2_2 PDZ = DLG2_2 PDZ (Homo sapiens, UniProt Q15700); test: Holdup assay; settings: composite holdup affinity; 0.00=below quantification threshold; read-out: COMP pKd (converted)
DLG4_1 PDZ = DLG4_1 PDZ (Homo sapiens, UniProt P78352); test: Holdup assay; settings: composite holdup affinity; 0.00=below quantification threshold; read-out: COMP pKd (converted)
LNX2_2 PDZ = LNX2_2 PDZ (Homo sapiens, UniProt Q8N448); test: Holdup assay; settings: composite holdup affinity; 0.00=below quantification threshold; read-out: COMP pKd (converted)
HTRA1 PDZ = HTRA1 PDZ (Homo sapiens, UniProt Q92743); test: Holdup assay; settings: composite holdup affinity; 0.00=below quantification threshold; read-out: COMP pKd (converted)
SNTA1 PDZ = SNTA1 PDZ (Homo sapiens, UniProt Q13424); test: Holdup assay; settings: composite holdup affinity; 0.00=below quantification threshold; read-out: COMP pKd (converted)
MAGI2_6 PDZ = MAGI2_6 PDZ (Homo sapiens, UniProt Q86UL8); test: Holdup assay; settings: composite holdup affinity; 0.00=below quantification threshold; read-out: COMP pKd (converted)
SCRIB2 PDZ = molecular target: T2, SCRIB2 PDZ (Homo sapiens, UniProt Q14160); test: Holdup assay; settings: composite holdup affinity; 0.00=below quantification threshold; read-out: COMP pKd (converted)
T2 sequence (Q14160 862-950 limits assumed): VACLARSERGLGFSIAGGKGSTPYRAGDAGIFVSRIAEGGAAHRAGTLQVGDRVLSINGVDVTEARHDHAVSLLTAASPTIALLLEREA

SHANK1 PDZ = SHANK1 PDZ (Homo sapiens, UniProt Q9Y566); test: Holdup assay; settings: composite holdup affinity; 0.00=below quantification threshold; read-out: COMP pKd (converted)
MAGI2_5 PDZ = MAGI2_5 PDZ (Homo sapiens, UniProt Q86UL8); test: Holdup assay; settings: composite holdup affinity; 0.00=below quantification threshold; read-out: COMP pKd (converted)
GRASP PDZ = GRASP PDZ (Homo sapiens, UniProt Q7Z6J2); test: Holdup assay; settings: composite holdup affinity; 0.00=below quantification threshold; read-out: COMP pKd (converted)
DLG2_3 PDZ = DLG2_3 PDZ (Homo sapiens, UniProt Q15700); test: Holdup assay; settings: composite holdup affinity; 0.00=below quantification threshold; read-out: COMP pKd (converted)
DLG3_3 PDZ = DLG3_3 PDZ (Homo sapiens, UniProt Q92796); test: Holdup assay; settings: composite holdup affinity; 0.00=below quantification threshold; read-out: COMP pKd (converted)
Inadl_3 PDZ = Inadl_3 PDZ (Homo sapiens, UniProt Q8NI35); test: Holdup assay; settings: composite holdup affinity; 0.00=below quantification threshold; read-out: COMP pKd (converted)
GRIP2_6 PDZ = GRIP2_6 PDZ (Homo sapiens, UniProt Q9C0E4); test: Holdup assay; settings: composite holdup affinity; 0.00=below quantification threshold; read-out: COMP pKd (converted)
FRMPD2_1 PDZ = FRMPD2_1 PDZ (Homo sapiens, UniProt Q68DX3); test: Holdup assay; settings: composite holdup affinity; 0.00=below quantification threshold; read-out: COMP pKd (converted)
FRMPD3 PDZ = FRMPD3 PDZ (Homo sapiens, UniProt Q5JV73); test: Holdup assay; settings: composite holdup affinity; 0.00=below quantification threshold; read-out: COMP pKd (converted)
LIN7A PDZ = LIN7A PDZ (Homo sapiens, UniProt O14910); test: Holdup assay; settings: composite holdup affinity; 0.00=below quantification threshold; read-out: COMP pKd (converted)
FRMPD2_3 PDZ = FRMPD2_3 PDZ (Homo sapiens, UniProt Q68DX3); test: Holdup assay; settings: composite holdup affinity; 0.00=below quantification threshold; read-out: COMP pKd (converted)
GRIP2_5 PDZ = GRIP2_5 PDZ (Homo sapiens, UniProt Q9C0E4); test: Holdup assay; settings: composite holdup affinity; 0.00=below quantification threshold; read-out: COMP pKd (converted)
GRIP1_2 PDZ = GRIP1_2 PDZ (Homo sapiens, UniProt Q9Y3R0); test: Holdup assay; settings: composite holdup affinity; 0.00=below quantification threshold; read-out: COMP pKd (converted)
GRIP2_4 PDZ = GRIP2_4 PDZ (Homo sapiens, UniProt Q9C0E4); test: Holdup assay; settings: composite holdup affinity; 0.00=below quantification threshold; read-out: COMP pKd (converted)
LIMK2 PDZ = LIMK2 PDZ (Homo sapiens, UniProt P53671); test: Holdup assay; settings: composite holdup affinity; 0.00=below quantification threshold; read-out: COMP pKd (converted)
GRIP2_3 PDZ = GRIP2_3 PDZ (Homo sapiens, UniProt Q9C0E4); test: Holdup assay; settings: composite holdup affinity; 0.00=below quantification threshold; read-out: COMP pKd (converted)
AHNAK1 PDZ = AHNAK1 PDZ (Homo sapiens, UniProt Q09666); test: Holdup assay; settings: composite holdup affinity; 0.00=below quantification threshold; read-out: COMP pKd (converted)
DLG2_1 PDZ = DLG2_1 PDZ (Homo sapiens, UniProt Q15700); test: Holdup assay; settings: sheet PPI_convert; read-out: affinity to PDZ DLG2_1 (converted)
GRIP1_1 PDZ = GRIP1_1 PDZ (Homo sapiens, UniProt Q9Y3R0); test: Holdup assay; settings: sheet PPI_convert; read-out: affinity to PDZ GRIP1_1 (converted)
PDZRN4_2 PDZ = PDZRN4_2 PDZ (Homo sapiens, UniProt Q6ZMN7); test: Holdup assay; settings: sheet PPI_convert; read-out: affinity to PDZ PDZRN4_2 (converted)
RADIL PDZ = RADIL PDZ (Homo sapiens, UniProt Q96JH8); test: Holdup assay; settings: composite holdup affinity; 0.00=below quantification threshold; read-out: COMP pKd (converted)
CNKSR1 PDZ = CNKSR1 PDZ (Homo sapiens, UniProt Q969H4); test: Holdup assay; settings: sheet PPI_convert; read-out: affinity to PDZ CNKSR1 (converted)
Description: Supplement 41467_2022_33018_MOESM4_ESM.xlsx, sheet "PPI_convert" | column: CNKSR1

PARD3B_2 PDZ = PARD3B_2 PDZ (Homo sapiens, UniProt Q8TEW8); test: Holdup assay; settings: sheet PPI_convert; read-out: affinity to PDZ PARD3B_2 (converted)
Sequence of PARD3B_2 PDZ (Q8TEW8 383-468 limits assumed): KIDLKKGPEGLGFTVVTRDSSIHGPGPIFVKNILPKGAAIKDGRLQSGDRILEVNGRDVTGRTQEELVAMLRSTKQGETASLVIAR

Sequence of DLG3_2 PDZ (Q92796 226-311 limits assumed): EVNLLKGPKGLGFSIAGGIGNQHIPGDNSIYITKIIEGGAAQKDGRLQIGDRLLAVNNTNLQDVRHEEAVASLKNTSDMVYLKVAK
Sequence of NHERF3_1 PDZ (Q5T2W1 9-90 limits assumed): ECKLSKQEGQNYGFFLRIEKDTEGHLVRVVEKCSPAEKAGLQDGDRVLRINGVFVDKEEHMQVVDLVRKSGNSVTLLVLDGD
Sequence of DLG2_1 PDZ (Q15700 98-184): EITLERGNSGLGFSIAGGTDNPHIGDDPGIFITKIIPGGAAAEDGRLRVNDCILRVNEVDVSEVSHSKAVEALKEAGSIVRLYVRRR
Sequence of DLG4_2 PDZ (P78352 160-246 limits assumed): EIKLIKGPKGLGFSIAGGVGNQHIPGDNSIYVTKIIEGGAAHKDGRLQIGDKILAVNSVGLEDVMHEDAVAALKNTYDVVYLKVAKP
Sequence of DLG2_3 PDZ (Q15700 421-501 limits assumed): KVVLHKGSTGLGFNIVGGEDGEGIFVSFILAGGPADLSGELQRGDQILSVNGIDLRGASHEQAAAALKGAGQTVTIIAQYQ
Sequence of MAGI1_2 PDZ (Q96QZ7 472-554 limits assumed): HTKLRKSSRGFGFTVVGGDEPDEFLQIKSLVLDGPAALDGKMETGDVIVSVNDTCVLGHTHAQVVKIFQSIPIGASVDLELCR
Sequence of MAGI2_5 PDZ (Q86UL8 920-1010 limits assumed): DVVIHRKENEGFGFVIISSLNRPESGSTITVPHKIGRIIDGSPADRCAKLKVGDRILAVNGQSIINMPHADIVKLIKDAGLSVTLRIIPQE
Sequence of DLG3_3 PDZ (Q92796 379-465 limits assumed): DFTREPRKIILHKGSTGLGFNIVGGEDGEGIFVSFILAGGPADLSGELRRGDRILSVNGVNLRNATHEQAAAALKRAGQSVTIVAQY
Sequence of LNX2_2 PDZ (Q8N448 339-422 limits assumed): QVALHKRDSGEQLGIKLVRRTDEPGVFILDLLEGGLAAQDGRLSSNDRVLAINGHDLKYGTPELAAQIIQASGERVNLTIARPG
Sequence of GRIP1_2 PDZ (Q9Y3R0 150-238 limits assumed): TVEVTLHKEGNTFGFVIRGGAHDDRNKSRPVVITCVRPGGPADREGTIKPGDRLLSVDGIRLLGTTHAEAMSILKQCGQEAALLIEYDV
Sequence of DLG2_2 PDZ (Q15700 193-279 limits assumed): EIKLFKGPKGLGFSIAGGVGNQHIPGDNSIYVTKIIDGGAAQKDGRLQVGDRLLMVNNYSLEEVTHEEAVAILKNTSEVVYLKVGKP
Sequence of SNTA1 PDZ (Q13424 87-170 limits assumed): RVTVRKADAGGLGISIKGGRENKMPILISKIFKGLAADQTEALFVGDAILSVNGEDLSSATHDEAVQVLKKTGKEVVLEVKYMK
Sequence of DLG4_1 PDZ (P78352 65-151): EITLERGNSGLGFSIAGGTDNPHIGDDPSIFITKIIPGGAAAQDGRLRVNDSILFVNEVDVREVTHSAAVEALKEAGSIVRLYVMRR
Sequence of FRMPD2_1 PDZ (Q68DX3 775-861 limits assumed): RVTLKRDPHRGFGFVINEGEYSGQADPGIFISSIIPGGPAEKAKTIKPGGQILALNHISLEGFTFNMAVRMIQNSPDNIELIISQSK
Sequence of GRIP2_3 PDZ (Q9C0E4 248-332 limits assumed): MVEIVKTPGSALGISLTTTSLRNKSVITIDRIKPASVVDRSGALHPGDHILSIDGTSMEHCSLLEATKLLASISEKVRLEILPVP
Sequence of Inadl_3 PDZ (Q8NI35 365-453 limits assumed): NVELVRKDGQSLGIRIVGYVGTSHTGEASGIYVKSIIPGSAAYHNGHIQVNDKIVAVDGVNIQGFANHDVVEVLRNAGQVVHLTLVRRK
Sequence of GRIP2_4 PDZ (Q9C0E4 456-545 limits assumed): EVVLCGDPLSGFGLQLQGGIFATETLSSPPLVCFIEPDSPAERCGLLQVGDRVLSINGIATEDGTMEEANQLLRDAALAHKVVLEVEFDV
Sequence of FRMPD2_3 PDZ (Q68DX3 1079-1167 limits assumed): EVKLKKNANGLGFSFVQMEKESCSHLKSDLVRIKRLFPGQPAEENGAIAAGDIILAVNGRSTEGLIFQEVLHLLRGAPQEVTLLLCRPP
Sequence of GRASP PDZ (Q7Z6J2 101-190 limits assumed): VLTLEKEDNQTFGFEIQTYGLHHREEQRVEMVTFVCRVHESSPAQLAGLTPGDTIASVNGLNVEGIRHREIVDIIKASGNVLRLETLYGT
Sequence of GRIP1_1 PDZ (Q9Y3R0 53-136 limits assumed): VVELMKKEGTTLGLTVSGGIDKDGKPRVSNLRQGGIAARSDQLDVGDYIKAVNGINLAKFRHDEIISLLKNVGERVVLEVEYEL
Sequence of FRMPD3 PDZ (Q5JV73 21-98 limits assumed): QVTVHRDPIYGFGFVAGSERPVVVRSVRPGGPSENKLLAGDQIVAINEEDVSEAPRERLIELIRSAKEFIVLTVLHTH
Sequence of MAGI2_6 PDZ (Q86UL8 1147-1229 limits assumed): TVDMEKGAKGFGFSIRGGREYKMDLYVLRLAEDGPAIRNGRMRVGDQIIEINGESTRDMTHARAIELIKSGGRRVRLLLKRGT
Sequence of AHNAK1 PDZ (Q09666 9-90 limits assumed): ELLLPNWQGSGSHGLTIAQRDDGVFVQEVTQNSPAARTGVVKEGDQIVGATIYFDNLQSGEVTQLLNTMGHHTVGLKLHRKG
Sequence of GRIP2_6 PDZ (Q9C0E4 656-738 limits assumed): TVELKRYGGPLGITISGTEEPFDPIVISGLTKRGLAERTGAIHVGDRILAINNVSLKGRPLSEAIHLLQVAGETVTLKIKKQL
Sequence of RADIL PDZ (Q96JH8 976-1061 limits assumed): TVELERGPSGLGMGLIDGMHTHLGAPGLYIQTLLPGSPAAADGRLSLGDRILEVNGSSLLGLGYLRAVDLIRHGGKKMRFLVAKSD
Sequence of PDZRN4_2 PDZ (Q6ZMN7 402-486 limits assumed): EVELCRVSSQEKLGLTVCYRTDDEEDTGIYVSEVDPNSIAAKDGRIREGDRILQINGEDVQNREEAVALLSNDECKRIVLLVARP
Sequence of GRIP2_5 PDZ (Q9C0E4 557-641 limits assumed): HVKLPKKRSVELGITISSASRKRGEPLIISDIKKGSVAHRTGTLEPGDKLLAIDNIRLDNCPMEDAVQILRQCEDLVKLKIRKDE
Sequence of SHANK1 PDZ (Q9Y566 663-757 limits assumed): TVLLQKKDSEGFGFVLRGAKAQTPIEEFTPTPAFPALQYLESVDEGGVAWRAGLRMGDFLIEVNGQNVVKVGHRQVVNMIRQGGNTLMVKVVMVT
Sequence of CNKSR1 PDZ (Q969H4 196-285 limits assumed): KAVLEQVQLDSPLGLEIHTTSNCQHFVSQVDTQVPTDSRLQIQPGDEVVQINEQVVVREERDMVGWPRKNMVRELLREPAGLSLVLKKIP
Sequence of HTRA1 PDZ (Q92743 365-467 limits assumed): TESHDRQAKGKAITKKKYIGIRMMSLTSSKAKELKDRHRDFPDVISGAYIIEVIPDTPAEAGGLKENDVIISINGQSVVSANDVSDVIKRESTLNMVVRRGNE
Sequence of LIMK2 PDZ (P53671 152-239 limits assumed): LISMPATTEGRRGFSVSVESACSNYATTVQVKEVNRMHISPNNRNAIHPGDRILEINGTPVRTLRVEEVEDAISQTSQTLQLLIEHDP
Sequence of LIN7A PDZ (O14910 108-190 limits assumed): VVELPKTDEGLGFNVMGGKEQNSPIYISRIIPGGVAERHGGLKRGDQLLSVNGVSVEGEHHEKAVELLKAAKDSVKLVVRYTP

RHTTSTETAV [HPV30-E6]
Kd (NHERF3_1 PDZ): 13.5 µM | Kd (SNX27 PDZ): 2.29 µM | Kd (MAGI1_2 PDZ): 40.7 µM | Kd (SYNJ2BP PDZ): 4.37 µM | Kd (DLG3_2 PDZ): 3.89 µM | Kd (DLG4_2 PDZ): 3.55 µM | Kd (DLG2_2 PDZ): 6.46 µM | Kd (DLG4_1 PDZ): 12 µM | Kd (LNX2_2 PDZ): 170 µM | Kd (HTRA1 PDZ): 186 µM | Kd (SNTA1 PDZ): 19.1 µM | Kd (MAGI2_6 PDZ): 64.6 µM | Kd (SCRIB2 PDZ): 7.76 µM | Kd (SHANK1 PDZ): 186 µM | Kd (MAGI2_5 PDZ): 49 µM | Kd (GRASP PDZ): 110 µM | Kd (DLG2_3 PDZ): 16.2 µM | Kd (DLG3_3 PDZ): 21.9 µM | Kd (Inadl_3 PDZ): 170 µM | Kd (GRIP2_6 PDZ): 170 µM | Kd (FRMPD2_1 PDZ): 72.4 µM | Kd (FRMPD3 PDZ): 174 µM | Kd (LIN7A PDZ): 158 µM | Kd (FRMPD2_3 PDZ): 135 µM | Kd (GRIP2_5 PDZ): 178 µM | Kd (GRIP1_2 PDZ): 166 µM | Kd (GRIP2_4 PDZ): 219 µM | Kd (LIMK2 PDZ): 141 µM | Kd (GRIP2_3 PDZ): 245 µM | Kd (AHNAK1 PDZ): 191 µM | Kd (DLG2_1 PDZ): 14.5 µM | Kd (GRIP1_1 PDZ): 25.7 µM | Kd (PDZRN4_2 PDZ): 33.1 µM

RTRQRNETQV [HPV51-E6]
Kd (NHERF3_1 PDZ): 67.6 µM | Kd (SNX27 PDZ): 14.1 µM | Kd (MAGI1_2 PDZ): 1.17 µM | Kd (SYNJ2BP PDZ): 9.55 µM | Kd (DLG3_2 PDZ): 7.94 µM | Kd (DLG4_2 PDZ): 10.2 µM | Kd (DLG2_2 PDZ): 10.7 µM | Kd (DLG4_1 PDZ): 12.6 µM | Kd (LNX2_2 PDZ): 245 µM | Kd (SNTA1 PDZ): 58.9 µM | Kd (SCRIB2 PDZ): 40.7 µM | Kd (MAGI2_5 PDZ): 75.9 µM | Kd (RADIL PDZ): 151 µM | Kd (DLG2_3 PDZ): 17.8 µM | Kd (DLG3_3 PDZ): 12.3 µM | Kd (GRIP1_2 PDZ): 347 µM | Kd (CNKSR1 PDZ): 36.3 µM | Kd (DLG2_1 PDZ): 8.71 µM | Kd (PARD3B_2 PDZ): 40.7 µM
